Test system: yeast genes (level of expressed mRNA)
Test: DNA chip analysis of expressed mRNA of yeast genes after 2 h culture with a toxic chemical substance
Format: cell-based, Saccharomyces cerevisiae S288C
Method: Yeast (Saccharomyces cerevtisiae S288C (α SUC2mal mel gap2 CUP1)) were cultured at 25° C. on YPD medium (yeast extract 1%, polypepton 2%, glucose 2%). One of toxic chemical substances was added to the cell at logarithmic growth phase, and the cell was further cultured for two hours. Cell was cultured without any chemical substance in the same condition, and was used as control. Concentrations of the chemical substances were defined to inhibit the growth of the yeast but not lead to death.
After the completion of cultivation, the culture was centrifuged to collect the cells. To the cells, sodium acetate buffer (50 mM sodium acetate, 10 mM EDTA, 1% SDS) was added, and the mixture was shaken at 65° C. for five minutes, followed by returning to room temperature, and obtaining the supernatant, which procedure was repeated two times. To the supernatant, ½ amount of a solution of phenol/chloroform was added, and the mixture was centrifuged to give a supernatant, which was added with an equal amount of chloroform, and the mixture was centrifuged to give a supernatant. To the supernatant, an equal amount of isopropanol containing 0.3 M sodium acetate was added, and the mixture was allowed to stand at room temperature for 30 minutes, after which the mixture was centrifuged to give a sediment of the whole RNAs. Seventy % ethanol was added to the sediment, and the mixture was again centrifuged to give a sediment, which was then dried and dissolved in water. mRNA was isolated from the whole RNAs as followings. In view of the fact that a poly A chain is attached to the 3′ terminus of mRNA, a polynucleotide having a poly T structure which was immobilized on the surface of latex beads was used to trap the mRNA, and then the mRNA was washed and eluted with spine column (Oligotex-dT30<Super>mRNA Purification Kit, Takara). Reverse transcription of the mRNA was conducted with a reverse transcriptase (Super Script II Reverse Transcriptase; catalogue No. 18064-014, GibcoBRL) using fluorescence-labeled nucleotides to give cDNAs that were introduced with Cy3-dUTP or Cy5-dUTP during the reverse transcription.
The labeled cDNAs were dissolved in TE buffer (10 mM Tris-HCl/1 mM EDTA, pH8.0), and the solution was dropped on the DNA chip containing the whole genes of yeast (DNA Chip Research Inc. Japan) so that the cDNAs were hybridized on the DNA chip at 65° C. for over 12 hours. The fluoresces intensity of the DNA chip was read with a scanner, and the ratio relative to the fluorescence intensity resulting from the absence of chemical substance was estimated as the following, which is shown in Tables 1 to 9: [formula]
In the Tables, “Intensity” indicated in the rightmost column is a value of the level of expressed mRNA of each gene in control cells as divided by the average level of the expressions of the whole genes.

## COc1cc(CNC(=O)CCCCC=CC(C)C)ccc1O [(12), 8-methyl-N-vanillyl-6-nonenamide]
Gene YHL006C
  The level of expressed mRNA in the presence of chemical substance/absence: YHL006C: 1.0
Gene YHL021C
  The level of expressed mRNA in the presence of chemical substance/absence: YHL021C: 1.1
Gene YHL037C
  The level of expressed mRNA in the presence of chemical substance/absence: YHL037C: 0.6
Gene YHR037W
  level of expressed mRNA in the presence of chemical substance/in its absence: 1.1
Gene YHR083W
  The level of expressed mRNA in the presence of chemical substance/absence: YHR083W: 0.9
Gene YHR092C
  level of expressed mRNA in the presence of chemical substance/in its absence: 1.0
Gene YHR095W
  The level of expressed mRNA in the presence of chemical substance/absence: YHR095W: 0.6
Gene YHR105W
  The level of expressed mRNA in the presence of chemical substance/absence: YHR105W: 0.7
Gene YHR134W
  The level of expressed mRNA in the presence of chemical substance/absence: YHR134W: 1.0
Gene YHR137W
  level of expressed mRNA in the presence of chemical substance/in its absence: 0.6
Gene YHR180W
  The level of expressed mRNA in the presence of chemical substance/absence: YHR180W: 0.7
Gene YHR181W
  The level of expressed mRNA in the presence of chemical substance/absence: YHR181W: 0.8
Gene YHR190W
  level of expressed mRNA in the presence of chemical substance/in its absence: 1.1
Gene YIL033C
  level of expressed mRNA in the presence of chemical substance/in its absence: 1.1
Gene YIL108W
  The level of expressed mRNA in the presence of chemical substance/absence: YIL108W: 0.7
Gene YIL127C
  The level of expressed mRNA in the presence of chemical substance/absence: YIL127C: 0.7
Gene YIL154C
  level of expressed mRNA in the presence of chemical substance/in its absence: 1.1
Gene YIL165C
  The level of expressed mRNA in the presence of chemical substance/absence: YIL165C: 0.9
Gene YIL167W
  level of expressed mRNA in the presence of chemical substance/in its absence: 0.7
Gene YIR035C
  level of expressed mRNA in the presence of chemical substance/in its absence: 0.9
Gene YJL017W
  The level of expressed mRNA in the presence of chemical substance/absence: YJL017W: 1.3
Gene YJL032W
  The level of expressed mRNA in the presence of chemical substance/absence: YJL032W: 0.5
Gene YJL037W
  The level of expressed mRNA in the presence of chemical substance/absence: YJL037W: 0.8
Gene YJL049W
  The level of expressed mRNA in the presence of chemical substance/absence: YJL049W: 0.8
Gene YJL088W
  level of expressed mRNA in the presence of chemical substance/in its absence: 0.7
Gene YJL097W
  The level of expressed mRNA in the presence of chemical substance/absence: YJL097W: 1.0
Gene YJL132W
  level of expressed mRNA in the presence of chemical substance/in its absence: 1.0
Gene YJL196C
  level of expressed mRNA in the presence of chemical substance/in its absence: 1.1
Gene YJR030C
  The level of expressed mRNA in the presence of chemical substance/absence: YJR030C: 0.9
Gene YJR044C
  The level of expressed mRNA in the presence of chemical substance/absence: YJR044C: 0.7
Gene YJR142W
  level of expressed mRNA in the presence of chemical substance/in its absence: 0.8
Gene YJR148W
  level of expressed mRNA in the presence of chemical substance/in its absence: 0.8
Gene YJR159W
  level of expressed mRNA in the presence of chemical substance/in its absence: 1.5
Gene YKL051W
  The level of expressed mRNA in the presence of chemical substance/absence: YKL051W: 0.8
Gene YKL059C
  The level of expressed mRNA in the presence of chemical substance/absence: YKL059C: 0.9
Gene YKL067W
  level of expressed mRNA in the presence of chemical substance/in its absence: 0.9
Gene YKL090W
  The level of expressed mRNA in the presence of chemical substance/absence: YKL090W: 0.6
Gene YKL094W
  The level of expressed mRNA in the presence of chemical substance/absence: YKL094W: 0.9
Gene YKL097C
  The level of expressed mRNA in the presence of chemical substance/absence: YKL097C: 0.6
Gene YKL100C
  The level of expressed mRNA in the presence of chemical substance/absence: YKL100C: 0.9
Gene YKR039W
  level of expressed mRNA in the presence of chemical substance/in its absence: 1.5
Gene YKR040C
  The level of expressed mRNA in the presence of chemical substance/absence: YKR040C: 0.8
Gene YLR097C
  The level of expressed mRNA in the presence of chemical substance/absence: YLR097C: 0.8
Gene YLR142W
  level of expressed mRNA in the presence of chemical substance/in its absence: 0.8
Gene YLR180W
  level of expressed mRNA in the presence of chemical substance/in its absence: 0.6
Gene YLR226W
  The level of expressed mRNA in the presence of chemical substance/absence: YLR226W: 0.7
Gene YLR273C
  level of expressed mRNA in the presence of chemical substance/in its absence: 0.9
Gene YLR300W
  level of expressed mRNA in the presence of chemical substance/in its absence: 0.5
Gene YLR307W
  level of expressed mRNA in the presence of chemical substance/in its absence: 0.7
Gene YLR338W
  The level of expressed mRNA in the presence of chemical substance/absence: YLR338W: 0.6
Gene YLR339C
  The level of expressed mRNA in the presence of chemical substance/absence: YLR339C: 0.6
Gene YLR392C
  The level of expressed mRNA in the presence of chemical substance/absence: YLR392C: 0.6
Gene YLR415C
  The level of expressed mRNA in the presence of chemical substance/absence: YLR415C: 0.8
Gene YLR427W
  The level of expressed mRNA in the presence of chemical substance/absence: YLR427W: 0.9
Gene YML013W
  The level of expressed mRNA in the presence of chemical substance/absence: YML013W: 0.9
Gene YML029W
  The level of expressed mRNA in the presence of chemical substance/absence: YML029W: 1.1
Gene YML041C
  The level of expressed mRNA in the presence of chemical substance/absence: YML041C: 0.8
Gene YML079W
  The level of expressed mRNA in the presence of chemical substance/absence: YML079W: 1.1
